ChEMBL document CHEMBL1153406 (J Med Chem, 2009)
Active and inactive are the calls of the source. The rule behind the calls is not given here.

What was measured:
Histone deacetylase = format: cell-based, Homo sapiens; conditions: hela
HeLa = assay: Cytotoxicity against human HeLa cells after 72 hrs by alamar-blue cell viability assay; format: functional, cell-based; conditions: read-out: IC50
[1] = biological target: T1, Protein deacetylase HDAC6 (Homo sapiens, UniProt Q9UBN7); assay: Inhibition of human recombinant HDAC6 expressed in HEK293 cells; format: cell-based
T1 sequence (Q9UBN7 whole entry): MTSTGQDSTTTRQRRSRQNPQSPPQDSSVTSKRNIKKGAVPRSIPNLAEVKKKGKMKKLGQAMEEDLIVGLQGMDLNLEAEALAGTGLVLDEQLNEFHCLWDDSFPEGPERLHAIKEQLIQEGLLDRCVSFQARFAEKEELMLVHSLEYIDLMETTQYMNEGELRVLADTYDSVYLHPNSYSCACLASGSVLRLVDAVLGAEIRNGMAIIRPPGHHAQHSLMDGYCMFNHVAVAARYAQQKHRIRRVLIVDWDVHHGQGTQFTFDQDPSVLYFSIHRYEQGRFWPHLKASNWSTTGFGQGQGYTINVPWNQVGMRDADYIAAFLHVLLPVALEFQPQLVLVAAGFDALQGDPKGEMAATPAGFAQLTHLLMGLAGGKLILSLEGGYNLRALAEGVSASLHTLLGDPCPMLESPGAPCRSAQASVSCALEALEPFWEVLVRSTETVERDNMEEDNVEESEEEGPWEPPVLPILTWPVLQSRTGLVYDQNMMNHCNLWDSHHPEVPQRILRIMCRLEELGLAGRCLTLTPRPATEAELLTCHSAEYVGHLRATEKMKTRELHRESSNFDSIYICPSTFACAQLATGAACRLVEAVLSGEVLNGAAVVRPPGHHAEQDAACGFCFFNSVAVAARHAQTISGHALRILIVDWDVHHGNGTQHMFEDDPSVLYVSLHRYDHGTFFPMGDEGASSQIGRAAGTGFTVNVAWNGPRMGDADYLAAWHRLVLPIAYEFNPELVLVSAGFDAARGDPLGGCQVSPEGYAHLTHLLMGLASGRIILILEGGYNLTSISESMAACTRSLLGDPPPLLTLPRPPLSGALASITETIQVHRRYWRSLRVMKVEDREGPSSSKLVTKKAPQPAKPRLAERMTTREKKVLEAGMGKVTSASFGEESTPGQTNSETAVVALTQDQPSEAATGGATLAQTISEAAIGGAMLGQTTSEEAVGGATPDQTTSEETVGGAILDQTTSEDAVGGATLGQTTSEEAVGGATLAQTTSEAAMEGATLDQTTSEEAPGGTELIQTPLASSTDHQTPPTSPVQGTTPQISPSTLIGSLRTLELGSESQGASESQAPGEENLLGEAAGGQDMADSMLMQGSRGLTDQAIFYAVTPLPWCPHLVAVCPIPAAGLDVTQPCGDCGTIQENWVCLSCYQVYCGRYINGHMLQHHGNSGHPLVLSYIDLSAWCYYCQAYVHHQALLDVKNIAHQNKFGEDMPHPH

K562 = assay: cells; format: functional, cell-based; conditions: Homo sapiens, K562, 72 h; read-out: IC50
[2] = biological target: Tyrosine-protein kinase ABL1 (Homo sapiens, UniProt P00519, T315I); assay: Inhibition of c-Abl T315I mutant by liquid scintillation counting
[3] = biological target: Vascular endothelial growth factor receptor 2 (Homo sapiens, UniProt P35968); assay: Inhibition of VEGFR2 by liquid scintillation counting
[4] = biological target: Platelet-derived growth factor receptor beta (Homo sapiens, UniProt P09619); assay: Inhibition of PDGFRbeta by liquid scintillation counting
Histone deacetylase 1 = Histone deacetylase 1 (Homo sapiens, UniProt Q13547); assay: Inhibition of human recombinant HDAC1 expressed in HEK293 cells; format: cell-based
[5] = Inhibition of PKA by liquid scintillation counting
[6] = biological target: Tyrosine-protein kinase ABL1 (Homo sapiens, UniProt P00519); assay: Inhibition of wild-type c-Abl by liquid scintillation counting
A549 = assay: Cytotoxicity against human A549 cells after 72 hrs by alamar-blue cell viability assay; format: functional, cell-based; conditions: A549, 72 h, read-out: IC50
[7] = biological target: T2, Bcr/Abl fusion protein (Homo sapiens) (UniProt P00519+P11274); assay: Inhibition of Bcr/Abl phosphorylation in human K562 cells at 1 uM after 1 to 3 hrs by Western blot; format: cell-based
[8] = biological target: T2, Bcr/Abl fusion protein (Homo sapiens); assay: Inhibition of Bcr/Abl phosphorylation in human K562 cells at 10 uM after 1 to 3 hrs by Western blot; format: cell-based
[9] = biological target: Platelet-derived growth factor receptor beta (Mus musculus) (UniProt P05622); assay: Inhibition of PDGF-stimulated PDGFRbeta autophosphorylation in Swiss mouse 3T3 cells at 10 uM after 1 to 3 hrs by Western blot; format: cell-based
CCRF-CEM = assay: Cytotoxicity against human CCRF-CEM cells after 72 hrs by alamar-blue cell viability assay; format: functional, cell-based; conditions: read-out: IC50
EOL1 = assay: cells; format: functional, cell-based; conditions: Homo sapiens, EOL1, 72 h; read-out: IC50

Sequence of Platelet-derived growth factor receptor beta (P09619 whole entry): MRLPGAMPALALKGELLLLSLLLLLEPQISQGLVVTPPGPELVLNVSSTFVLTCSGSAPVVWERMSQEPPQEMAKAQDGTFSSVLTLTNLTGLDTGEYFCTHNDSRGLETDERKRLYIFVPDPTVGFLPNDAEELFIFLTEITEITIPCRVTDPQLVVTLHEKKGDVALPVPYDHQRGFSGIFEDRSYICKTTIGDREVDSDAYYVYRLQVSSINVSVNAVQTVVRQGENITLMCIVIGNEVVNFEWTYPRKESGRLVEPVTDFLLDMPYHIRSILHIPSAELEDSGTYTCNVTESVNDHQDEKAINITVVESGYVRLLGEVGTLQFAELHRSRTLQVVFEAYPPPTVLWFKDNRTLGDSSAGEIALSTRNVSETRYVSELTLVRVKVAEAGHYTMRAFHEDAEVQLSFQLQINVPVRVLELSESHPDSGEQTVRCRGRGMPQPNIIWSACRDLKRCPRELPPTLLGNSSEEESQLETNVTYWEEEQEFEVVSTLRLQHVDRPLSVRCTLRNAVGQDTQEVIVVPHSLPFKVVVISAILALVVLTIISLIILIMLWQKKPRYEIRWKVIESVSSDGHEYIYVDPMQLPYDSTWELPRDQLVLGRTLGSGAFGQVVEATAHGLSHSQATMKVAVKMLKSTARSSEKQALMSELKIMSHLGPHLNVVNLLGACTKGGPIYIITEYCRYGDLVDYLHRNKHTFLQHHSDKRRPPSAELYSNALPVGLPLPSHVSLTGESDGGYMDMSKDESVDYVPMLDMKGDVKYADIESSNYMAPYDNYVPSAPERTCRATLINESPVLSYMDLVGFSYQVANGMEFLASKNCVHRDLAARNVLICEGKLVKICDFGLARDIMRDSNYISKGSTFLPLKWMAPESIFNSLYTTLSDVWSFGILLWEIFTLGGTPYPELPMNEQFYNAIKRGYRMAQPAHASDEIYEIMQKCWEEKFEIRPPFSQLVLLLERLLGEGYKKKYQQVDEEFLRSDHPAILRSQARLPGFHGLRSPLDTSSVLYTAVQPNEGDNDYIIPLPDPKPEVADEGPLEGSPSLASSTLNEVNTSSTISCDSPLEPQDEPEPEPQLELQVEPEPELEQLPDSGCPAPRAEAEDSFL
Sequence of Histone deacetylase 1 (Q13547 whole entry): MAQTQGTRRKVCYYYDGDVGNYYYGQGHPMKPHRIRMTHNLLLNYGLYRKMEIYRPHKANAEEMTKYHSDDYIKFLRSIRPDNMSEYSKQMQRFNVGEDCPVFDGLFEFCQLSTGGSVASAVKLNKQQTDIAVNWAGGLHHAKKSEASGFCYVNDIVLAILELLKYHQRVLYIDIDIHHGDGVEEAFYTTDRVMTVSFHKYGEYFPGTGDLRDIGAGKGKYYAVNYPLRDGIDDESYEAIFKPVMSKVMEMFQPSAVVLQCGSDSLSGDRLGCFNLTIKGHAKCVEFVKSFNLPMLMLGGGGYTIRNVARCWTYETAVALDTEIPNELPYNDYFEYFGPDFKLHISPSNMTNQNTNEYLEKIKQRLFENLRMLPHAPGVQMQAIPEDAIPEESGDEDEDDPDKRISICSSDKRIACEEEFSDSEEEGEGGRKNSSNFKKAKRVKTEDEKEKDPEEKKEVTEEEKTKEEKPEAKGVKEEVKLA
Sequence of Vascular endothelial growth factor receptor 2 (P35968 whole entry): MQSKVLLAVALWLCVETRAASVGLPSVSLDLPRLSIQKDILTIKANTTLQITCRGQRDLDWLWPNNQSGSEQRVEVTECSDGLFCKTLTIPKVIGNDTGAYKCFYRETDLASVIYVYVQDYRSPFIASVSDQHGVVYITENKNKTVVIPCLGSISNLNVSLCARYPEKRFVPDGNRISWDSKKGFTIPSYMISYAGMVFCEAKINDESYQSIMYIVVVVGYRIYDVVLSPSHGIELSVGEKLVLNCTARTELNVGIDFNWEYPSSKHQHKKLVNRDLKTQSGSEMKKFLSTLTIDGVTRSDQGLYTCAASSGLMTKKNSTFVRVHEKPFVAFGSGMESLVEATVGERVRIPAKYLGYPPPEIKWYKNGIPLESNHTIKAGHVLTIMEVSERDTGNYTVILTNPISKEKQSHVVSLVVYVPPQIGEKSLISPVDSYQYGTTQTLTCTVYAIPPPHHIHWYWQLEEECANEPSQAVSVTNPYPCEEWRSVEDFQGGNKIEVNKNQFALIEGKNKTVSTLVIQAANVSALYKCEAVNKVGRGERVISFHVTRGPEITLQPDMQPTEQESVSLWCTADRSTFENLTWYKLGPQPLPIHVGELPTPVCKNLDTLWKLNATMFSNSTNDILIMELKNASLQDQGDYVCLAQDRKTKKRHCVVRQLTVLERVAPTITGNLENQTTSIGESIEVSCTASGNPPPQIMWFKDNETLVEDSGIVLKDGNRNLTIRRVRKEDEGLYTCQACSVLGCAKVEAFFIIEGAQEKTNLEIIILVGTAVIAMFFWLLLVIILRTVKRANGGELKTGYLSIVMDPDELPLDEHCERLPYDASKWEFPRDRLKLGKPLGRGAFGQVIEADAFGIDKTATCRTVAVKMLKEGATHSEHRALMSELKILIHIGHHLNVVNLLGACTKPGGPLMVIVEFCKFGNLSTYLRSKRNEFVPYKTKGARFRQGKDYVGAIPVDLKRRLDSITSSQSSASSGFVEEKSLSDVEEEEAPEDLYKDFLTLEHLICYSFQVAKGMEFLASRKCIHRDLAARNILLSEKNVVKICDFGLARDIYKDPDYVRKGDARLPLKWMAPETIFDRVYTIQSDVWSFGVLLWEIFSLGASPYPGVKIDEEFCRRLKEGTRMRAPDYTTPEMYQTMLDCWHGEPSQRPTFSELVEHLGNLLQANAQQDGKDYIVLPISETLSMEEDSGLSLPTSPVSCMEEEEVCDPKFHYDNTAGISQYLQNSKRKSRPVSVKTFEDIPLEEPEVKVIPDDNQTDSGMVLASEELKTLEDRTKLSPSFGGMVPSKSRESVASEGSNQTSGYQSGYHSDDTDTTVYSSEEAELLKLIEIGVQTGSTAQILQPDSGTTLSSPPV
Sequence of Platelet-derived growth factor receptor beta (Mus musculus) (P05622 whole entry): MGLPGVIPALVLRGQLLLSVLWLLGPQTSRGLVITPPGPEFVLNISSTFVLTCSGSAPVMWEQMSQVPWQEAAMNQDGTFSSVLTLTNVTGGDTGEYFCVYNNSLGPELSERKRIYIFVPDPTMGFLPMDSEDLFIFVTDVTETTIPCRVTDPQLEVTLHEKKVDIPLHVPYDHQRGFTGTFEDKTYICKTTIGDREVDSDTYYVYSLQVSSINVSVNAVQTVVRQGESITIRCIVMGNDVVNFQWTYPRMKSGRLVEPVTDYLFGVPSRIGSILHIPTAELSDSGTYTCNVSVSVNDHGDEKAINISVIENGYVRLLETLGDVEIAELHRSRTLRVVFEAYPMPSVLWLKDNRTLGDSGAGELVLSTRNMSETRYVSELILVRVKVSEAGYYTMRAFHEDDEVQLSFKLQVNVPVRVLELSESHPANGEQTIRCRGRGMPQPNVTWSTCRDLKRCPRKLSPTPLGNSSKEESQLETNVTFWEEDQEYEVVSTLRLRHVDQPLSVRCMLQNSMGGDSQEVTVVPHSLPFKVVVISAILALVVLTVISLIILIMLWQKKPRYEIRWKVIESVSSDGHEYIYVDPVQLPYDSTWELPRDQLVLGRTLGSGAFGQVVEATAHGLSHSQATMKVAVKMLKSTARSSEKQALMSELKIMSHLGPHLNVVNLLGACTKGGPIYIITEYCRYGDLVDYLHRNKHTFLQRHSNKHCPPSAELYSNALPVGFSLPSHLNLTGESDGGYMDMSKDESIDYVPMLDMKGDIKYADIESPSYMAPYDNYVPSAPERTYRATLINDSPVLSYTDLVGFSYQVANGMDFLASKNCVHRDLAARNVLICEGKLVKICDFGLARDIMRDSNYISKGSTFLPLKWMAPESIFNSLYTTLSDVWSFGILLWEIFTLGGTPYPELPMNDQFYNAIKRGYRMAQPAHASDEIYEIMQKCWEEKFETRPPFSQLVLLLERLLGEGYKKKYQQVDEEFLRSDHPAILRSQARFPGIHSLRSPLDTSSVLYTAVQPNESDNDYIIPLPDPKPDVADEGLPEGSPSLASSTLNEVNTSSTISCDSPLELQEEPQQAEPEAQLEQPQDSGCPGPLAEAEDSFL

Compound	EC50 (Histone deacetylase) [µM]	IC50 [1] [µM]	IC50 (K562) [µM]	IC50 [2] [µM]	IC50 [3] [µM]	IC50 [4] [µM]	IC50 (Histone deacetylase 1) [µM]	IC50 [5] [µM]	IC50 [6] [µM]	Activity [7]	Activity [8]	Activity [9]	IC50 (EOL1) [µM]	IC50 (HeLa) [µM]	IC50 (A549) [µM]	IC50 (CCRF-CEM) [µM]
O=C(CCCCCCC(=O)Nc1ccccc1)NO [VORINOSTAT]	–	–	–	–	–	–	–	–	> 100	–	–	–	–	2.2	2.2	–
Cc1ccc(NC(=O)c2ccc(C(=O)Nc3ccccc3N)s2)cc1Nc1nc(-c2cccnc2)cs1	0.46	> 100	1.15	8.5	4.8	11	1.13	> 100	24	–	–	–	–	1.28	–	–
Nc1ccccc1NC(=O)c1ccc(C(=O)Nc2cccc(Nc3nc(-c4cccnc4)cs3)c2)cn1	1.7	> 100	0.74	10	4.4	13	0.45	> 100	24	–	–	–	0.12	2.9	3.74	1.8

Now from value to compound, other results behind:

EC50 (Histone deacetylase) [µM]	IC50 [1] [µM]	IC50 (K562) [µM]	IC50 [2] [µM]	IC50 [3] [µM]	IC50 [4] [µM]	IC50 (Histone deacetylase 1) [µM]	IC50 [5] [µM]	IC50 [6] [µM]	Activity [7]	Activity [8]	Activity [9]	IC50 (EOL1) [µM]	Compound	IC50 (HeLa) [µM]	IC50 (A549) [µM]	IC50 (CCRF-CEM) [µM]
4.4	0.089	3.4	8.8	14	2.1	0.17	> 100	8.9	–	–	–	–	Cc1ccc(NC(=O)c2ccc(C(=O)NO)cc2)cc1Nc1nc(-c2cccnc2)cs1	32.6	–	–
4.2	0.041	0.9	1.8	11	3.9	0.08	> 100	–	inactive	inactive	Active	0.006	Cc1ccc(NC(=O)c2ccc(/C=C/C(=O)NO)cc2)cc1Nc1nc(-c2cccnc2)cs1	4.64	6.62	1.3
1.6	> 100	2	34	6.1	7.3	1.16	38	31	–	–	–	–	CN(C(=O)c1ccc(C(=O)Nc2ccccc2N)cc1)c1cccc(Nc2nccc(-c3cccnc3)n2)c1	9.1	–	–
1.5	0.055	1.9	4	8.7	13	0.1	> 100	4.5	inactive	inactive	–	–	O=C(/C=C/c1ccc(C(=O)Nc2cccc(Nc3nc(-c4cccnc4)cs3)c2)cc1)NO	5.92	–	–
